The target of experiment [1] is T1, rhGBA (recombinant human GBA, Imiglucerase) (Homo sapiens, UniProt P04062, R534H).
T1 construct: purchased Sanofi Genzyme (Cambridge, MA, USA)
T1 sequence (P04062 40-536 R534H): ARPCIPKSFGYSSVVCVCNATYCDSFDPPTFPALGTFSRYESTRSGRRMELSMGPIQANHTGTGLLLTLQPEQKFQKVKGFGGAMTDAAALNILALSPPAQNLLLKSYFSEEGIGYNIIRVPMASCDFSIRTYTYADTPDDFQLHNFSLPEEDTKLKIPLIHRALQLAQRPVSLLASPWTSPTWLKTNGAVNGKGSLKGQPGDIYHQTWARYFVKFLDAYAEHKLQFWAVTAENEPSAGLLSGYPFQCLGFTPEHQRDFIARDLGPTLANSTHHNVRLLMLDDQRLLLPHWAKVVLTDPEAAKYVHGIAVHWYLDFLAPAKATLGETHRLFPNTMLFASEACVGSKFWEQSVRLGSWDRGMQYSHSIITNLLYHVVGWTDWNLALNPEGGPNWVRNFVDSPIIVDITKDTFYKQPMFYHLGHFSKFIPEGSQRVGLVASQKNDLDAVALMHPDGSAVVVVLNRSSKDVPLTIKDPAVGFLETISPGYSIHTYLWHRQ
Put plainly: Fluorogenic substrate (4-MU-β-D-glucoside) enzymatic assay, rhGBA. To be noted: for IC50: incubation time 30 min, enzymatic assay, ±SD, n=3, read-out: In vitro apparent IC50 rhGBA. Type of experiment: biochemical. As for the experimental part: Using fluorogenic substrate‐based assays, we determined apparent IC50 values at 30 min incubation time of the xylo‐cyclophellitols in rhGBA, and GBA2 and GBA3 lysates of cells expressing only each of the enzymes specifically.
(§1) Enzyme activity assays: All assays were performed with lysates of HEK293T cells or zebrafish larvae in 96‐well plates at 37 °C. Samples were diluted with McIlvaine buffer (150 mM citric acid‐Na2HPO4) to a final volume of 25 μL, at pH appropriate for each enzyme. Assays were performed by incubating the samples with 100 μL 4‐methylumbelliferyl‐β‐D‐glucoside substrates diluted in McIlvaine buffer (with 0.1 % (w/v) bovine serum albumin (BSA)) for a period of 30 min or 3 h. The substrate mixtures used for each enzyme were as follows: GBA, 3.75 mM 4‐MU‐β‐D‐glucopyranoside (Glycosynth, Warrington Cheshire, UK) at pH 5.2, supplemented with 0.2 % (w/v) sodium taurocholate, 0.1 % (v/v) Triton X‐100, 0.1 % (w/v) bovine serum albumin (BSA); GBA2, 3.75 mM 4 MU‐β‐D‐glucopyranoside at pH 5.8; GBA3, 3.75 mM 4‐MU‐β‐D‐glucopyranoside at pH 6.0. After stopping the enzyme reaction with 200 μL 1 M NaOH‐glycine (pH 10.3), 4‐methylumbelliferone fluorescence was measured with a fluorimeter LS55 (Perkin Elmer, Waltham, MA, USA) with λEX 366 nm and λEM 445 nm. Enzyme activities were determined by subtraction of background (measured for incubations without enzyme). IC50 values were determined exactly as earlier described.[36]
(§2) The IC50 values were determined using a fluorogenic enzymatic assay. For GBA, 3.16 ng (53 fmol) of rhGBA, (recombinant human GBA, Imiglucerase) obtained from Sanofi Genzyme (Cambridge, MA, USA), was prepared in 12.5 μL McIlvaine buffer (150 mM, pH 5.2) supplemented with 0.1 % (v/v) Triton X‐100, and 0.2 % (w/v) sodium taurocholate, 0.1 % (w/v) bovine serum albumin (BSA). The enzyme was incubated with 12.5 μL of inhibitors diluted in McIlvaine buffer (150 mM, pH 5.2) at 37 °C for 30 min. In the case of GBA2 or GBA3, lysates of GBA/GBA2 KO HEK293T cells overexpressing GBA2 or GBA3, respectively where used. The enzymatic activity of GBA, GBA2 and GBA3 were measured with 4MU‐β‐D‐glucoside substrate as described above.

The target in another experiment is T2, GBA2 (Homo sapiens, UniProt Q9HCG7).
T2 construct: expressed in transfected cells; host or cells: HEK293T (GBA/GBA2 KO background for the fluorogenic assay; endogenous-GBA background with GBA2 and GBA3 overexpressed for ABPP and intact-cell assays)
T2 sequence (Q9HCG7 1-927): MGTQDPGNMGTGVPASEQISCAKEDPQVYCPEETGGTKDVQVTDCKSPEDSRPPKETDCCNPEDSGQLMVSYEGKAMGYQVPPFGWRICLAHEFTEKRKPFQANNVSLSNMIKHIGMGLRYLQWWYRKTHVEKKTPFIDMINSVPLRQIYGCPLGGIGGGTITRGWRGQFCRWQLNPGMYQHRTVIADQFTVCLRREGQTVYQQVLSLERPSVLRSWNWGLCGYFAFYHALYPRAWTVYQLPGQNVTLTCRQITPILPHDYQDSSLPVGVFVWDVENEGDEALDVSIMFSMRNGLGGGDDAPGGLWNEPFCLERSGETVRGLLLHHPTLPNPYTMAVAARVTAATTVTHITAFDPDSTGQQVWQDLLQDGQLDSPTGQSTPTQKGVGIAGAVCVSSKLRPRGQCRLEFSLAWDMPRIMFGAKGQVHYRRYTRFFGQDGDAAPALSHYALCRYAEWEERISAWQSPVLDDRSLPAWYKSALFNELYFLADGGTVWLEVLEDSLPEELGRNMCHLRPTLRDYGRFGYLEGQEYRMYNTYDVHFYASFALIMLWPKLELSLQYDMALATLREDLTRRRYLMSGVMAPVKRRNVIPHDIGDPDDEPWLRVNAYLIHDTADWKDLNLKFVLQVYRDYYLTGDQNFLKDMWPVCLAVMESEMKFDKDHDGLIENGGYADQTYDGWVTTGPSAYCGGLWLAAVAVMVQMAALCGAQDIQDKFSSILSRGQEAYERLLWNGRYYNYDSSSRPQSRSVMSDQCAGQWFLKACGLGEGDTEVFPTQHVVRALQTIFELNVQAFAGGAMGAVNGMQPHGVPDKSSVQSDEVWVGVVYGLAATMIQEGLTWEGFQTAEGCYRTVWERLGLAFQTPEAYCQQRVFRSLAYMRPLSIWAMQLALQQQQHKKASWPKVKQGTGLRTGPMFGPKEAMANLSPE
Description: Fluorogenic substrate enzymatic assay, lysate of GBA/GBA2 KO HEK293T cells overexpressing GBA2. It counts as biochemical. To be noted: for (Ratio) GBA2/GBA / GBA2/GBA ratio, 3 h: IC50 ratio; for increase in GBA:GBA2 selectivity window compared to the conduritol analogue (13 or 14): IC50 ratio GBA2/GBA. The procedure:
as §1
as §2, with “The enzyme was incubated with 12.5 μL of inhibitors diluted in McIlvaine buffer (150 mM, pH 5.2) at 37 °C for 30 min.” left out

Where [2] appears, read: incubation time 30 min, enzymatic assay, ±SD, n=3, read-out: In vitro apparent IC50 GBA2.
[3] abbreviates: 30 min incubation time, read-out: apparent IC50 GBA2.
The mark [4] stands for this setting: enzymatic assay performed for 3 h, n=3, read-out: In vitro apparent IC50 GBA2, 3 h.

By IC50 is commonly meant the concentration that inhibits the measured activity by half.

Each structure is given as a SMILES string. Like-named read-outs stand apart in the source and are kept apart here. Some results are limits rather than exact numbers.

For `CN1/C(=C/C=C/C=C/C2=[N+](CCCCCC(=O)NCc3cn(CCCCCCCCN4[C@H]5[C@H](O)[C@@H](O)[C@H](O)C[C@H]54)nn3)c3ccccc3C2(C)C)C(C)(C)c2ccccc21` (stereo partly shown) [ABP 6], the 50% inhibitory concentration (IC50) turned out to be 6.44 ± 0.49 nM in experiment [1] and 544 ± 110 nM at GBA2 (setting [2]). For the same molecule, the “(Ratio) GBA2/GBA” value on GBA2 (in vitro, 30 min) is 84.
With `CN1/C(=C/C=C/C=C/C2=[N+](CCCCCC(=O)NCc3cn(C[C@@H]4[C@@H](O)[C@H](O)[C@@H](O)[C@@H]5O[C@H]45)nn3)c3ccccc3C2(C)C)C(C)(C)c2ccccc21` [ABP 9, reference compound], the IC50 in experiment [1] was determined as 45.2 ± 4.54 nM. Moreover, the “(Ratio) GBA2/GBA” value on GBA2 (in vitro, 30 min) was > 111.
As to `O[C@@H]1[C@@H](O)[C@H](O)C[C@H]2O[C@@H]12` [compound 1, xylo‐cyclophellitol], the IC50 in experiment [1] is 2670 ± 94.5 nM; at GBA2 (setting [3]) it was > 25000 nM; on GBA2 (setting [4]) it was 122000 ± 30200 nM; at GBA2 (setting [2]), > 50000 nM. Further, at GBA2 (in vitro 3 h), the “increase in GBA:GBA2 selectivity window compared to the conduritol analogue (13 or 14)” value is on record as “seven‐fold increase”. Moreover, on GBA2 (in vitro 3 h), the “GBA2/GBA ratio, 3 h” value was 272. Further, the “(Ratio) GBA2/GBA” value at GBA2 (in vitro, 30 min) is given as >19.
Turning to `O[C@@H]1[C@@H](O)[C@H](O)C[C@H]2N[C@@H]12` [compound 2, β‐D‐xylo‐Cyclophellitol aziridine], the IC50 is 719 ± 196 nM in experiment [1], > 25000 nM on GBA2 (setting [3]), 5310 ± 120 nM on GBA2 (setting [4]) and 31600 ± 926 nM at GBA2 (setting [2]). The “increase in GBA:GBA2 selectivity window compared to the conduritol analogue (13 or 14)” value on GBA2 (in vitro 3 h) is “three‐fold increase”. Further, the “GBA2/GBA ratio, 3 h” value on GBA2 (in vitro 3 h) turned out to be 22. Also, on GBA2 (in vitro, 30 min), the “(Ratio) GBA2/GBA” value amounted to 44. Besides, the “increase in inhibitory activity towards GBA2 of aziridines relative to epoxide analogues” value on GBA2 (in vitro 3 h) is reported as 10–20 fold.
`OC[C@@H]1[C@@H](O)[C@H](O)[C@@H](O)[C@@H]2O[C@H]12` [compound 3, cyclophellitol]: the figures for the 50% inhibitory concentration (IC50) (in experiment [1]; at GBA2 (setting [2])) were 400 ± 12.4 nM and 148 ± 7.51 nM, respectively. On GBA2 (in vitro, 30 min), the “(Ratio) GBA2/GBA” value was found to be 0.4.
In the case of `OC[C@@H]1[C@@H](O)[C@H](O)[C@@H](O)[C@@H]2N[C@H]12` [compound 4, cyclophellitol aziridine, reference compound], the half-inhibitory concentration (IC50) amounted to 341 ± 5.82 nM in experiment [1] and 279 ± 44.5 nM at GBA2 (setting [2]). Moreover, the “(Ratio) GBA2/GBA” value on GBA2 (in vitro, 30 min) is on record as 0.8.
With `[N-]=[N+]=NCCCCCCCCN1[C@H]2[C@H](O)[C@@H](O)[C@H](O)C[C@H]21` (stereo partly shown) [compound 5], in experiment [1] (in vitro, 30 min), the “potency against GBA compared to unsubstituted xylo-cyclophellitol aziridine 2” value was 600 fold. Further, the IC50 is 1.2 ± 0.06 nM in experiment [1] and 6380 ± 1150 nM at GBA2 (setting [2]). Moreover, at GBA2 (in vitro, 30 min), the “(Ratio) GBA2/GBA” value came out at 5317. For the same molecule, at GBA2 (in vitro, 30 min), the “potency against GBA2 compared to 2” value is reported as “five‐fold higher”.

(Values after paper PMC8596838, “Xylose‐Configured Cyclophellitols as Selective Inhibitors for Glucocerebrosidase” (Chembiochem, 2021).)
